Reference: US20130046098A1, “KINASE INHIBITORS” (THE UNIVERSITY OF MANCHESTER, priority 2009, published 2013)
Entries after “also recorded” stand apart in the source; their conditions may differ.

Experiments:
PKC epsilon = target: T1, PKC epsilon (Homo sapiens, UniProt Q02156); conditions: 10 μM; cited from earlier work
T1 sequence (Q02156 1-737): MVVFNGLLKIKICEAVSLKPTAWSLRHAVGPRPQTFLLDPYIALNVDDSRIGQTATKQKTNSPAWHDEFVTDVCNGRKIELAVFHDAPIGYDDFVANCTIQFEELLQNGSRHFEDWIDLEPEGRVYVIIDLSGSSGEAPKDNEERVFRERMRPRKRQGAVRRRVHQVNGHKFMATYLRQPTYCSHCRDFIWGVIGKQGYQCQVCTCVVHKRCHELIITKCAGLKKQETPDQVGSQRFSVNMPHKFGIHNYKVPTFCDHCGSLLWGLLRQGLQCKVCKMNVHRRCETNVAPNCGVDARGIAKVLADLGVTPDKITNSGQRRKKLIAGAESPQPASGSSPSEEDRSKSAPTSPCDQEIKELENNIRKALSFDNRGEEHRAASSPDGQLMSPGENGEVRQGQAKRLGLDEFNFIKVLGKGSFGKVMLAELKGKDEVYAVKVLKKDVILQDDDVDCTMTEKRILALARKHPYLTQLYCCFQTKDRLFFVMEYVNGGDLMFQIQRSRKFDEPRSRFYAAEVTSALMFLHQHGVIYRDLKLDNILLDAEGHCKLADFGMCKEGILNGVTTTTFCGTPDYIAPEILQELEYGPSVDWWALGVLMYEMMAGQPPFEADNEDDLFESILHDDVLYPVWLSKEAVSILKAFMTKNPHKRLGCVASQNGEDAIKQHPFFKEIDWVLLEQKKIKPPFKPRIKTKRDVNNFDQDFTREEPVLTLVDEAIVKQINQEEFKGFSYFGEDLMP

[1] = test system: polyclonal GEF16 transfected NIH3T3 cells; assay: Transformed colony forming assay (Toluidine blue)
Description: Following this incubation period the compound was then removed from the culture media and cells maintained in normal growth media for a further 10 days before the photographs shown were taken.
In FIG. 4A polyclonal GEF16 transfected cells were seeded at 2.0×10^5 cells per 30 mm dish and incubated over night. […] After a further 10 days culture in the absence of inhibitors the cells were stained with Toluidine blue and photographed to produce the images shown. […] These were incubated for 3 or 6 days then stained with Toluidine blue before being photographed.
Medium (containing the compound of interest—either Y27632 or the selected compounds of the invention—or DMSO control) was changed every 2 days. Formation of foci was analysed by Toluidine blue (Sigma-Aldrich, Poole, UK) staining after 10 days growth post confluence. […] Each assay was carried out in triplicate and the results shown are representative of at least three separate experiments.

[2] = test system: GEF16 transfected NIH3T3 cells; assay: Cell proliferation assay (Celltiter Aq96); assay type: cell-based, mouse; conditions: 10 μM, Cell AQ96 absorbance at 6, 8 and 10 days
Description: FIG. 1D is a bar chart showing the results of Cell AQ^96 assessment of the growth of GEF16 and vector transfected cells seeded in a 96 well plate at 1×10^3 cells per well. These were incubated for 3 days followed by addition of reagent to determine the starting point for the assay. 10 μM of either Y27632 or DMSO were then added to wells containing both cell types and Cell AQ^96 absorbance measured at 6, 8 and 10 days. At day 3 cells were 100% confluent which was determined by phase contrast visual inspection of the cultures at ×20 magnification;
Cell proliferation was investigated using Celltiter Aq^96 reagent (Promega, Southampton, UK) according to the manufacturer's protocol. Cells were seeded into a 96-well plate at a density of 1×10^3 cells/well allowing 3 wells per data point and allowed to attach for a set period. Following this, the initial starting point 490 nm absorbance was determined by adding 20 μl of Aq^96 reagent to each well and incubating for 4 h at 37° C. in 5% CO2 (96-well plate reader, Dynex Technologies, West Sussex, UK). The various compounds (Y27632 or compounds of the invention) or DMSO control were then added to duplicate wells and the absorbance determined in the same way at the time points indicated. Each data set shown is representative of three separate experiments.

[3] = test system: single transformed colony derived GEF16 NIH3T3 cells; assay: Growth of cell populations derived from single GEF16 transformed colonies; assay type: cell-based, mouse; conditions: FIG. 5A
Description: FIG. 5 illustrates that the growth suppressive effects of YA1 on single transformed colony derived GEF16 NIH3T3 cells and polyclonal Ras transformed NIH3T3 cells are more pronounced when these are co-cultured with non-transformed cells. In FIG. 5A single transformed colonies were picked from 10 day cultures of GEF16 polyclonal NIH3T3 cells and expanded. These cells were then seeded at 2.0×10^5 cells per 30 mm dish and treated with 10 μM of YA1 or DMSO control either immediately or following 10 days in culture. Duplicate wells were harvested for flow cytometry. In FIG. 5B a total of 2×10^5 cells per well were plated consisting of increasing numbers of non-transformed vector cells co-cultured with decreasing numbers of single transformed colony derived GEF16 cells. These were treated with 10 μM of either YA1 or DMSO for 10 days. In producing the results shown in FIG. 5C the same co-culture experiment described in connection with FIG. 5B was carried out substituting polyclonal Ras transformed NIH3T3 cells for GEF16 transformed cells.
Single transformed colonies were picked from GEF16 polyclonal NIH3T3 cells and expanded according to the methods described above. Expanded cell populations were plated and a compound of the invention (YA1) added either immediately or after 10 days when the cells were post-confluent.

HGK (MAP4K4) = HGK (MAP4K4) (Homo sapiens, UniProt O95819); assay: SelectScreen in vitro kinase profiling, single point; conditions: additional single point analysis, 10 μM
p38 alpha (MAPK14) = p38 alpha (MAPK14) (Homo sapiens, UniProt Q16539); assay: as above; conditions: additional single point analysis, 10 μM
ROCK2 = ROCK2 (Homo sapiens, UniProt O75116); assay: SelectScreen additional single point analysis; conditions: 10 μM
ROCK1 = ROCK1 (Homo sapiens, UniProt Q13464); assay: SelectScreen additional single point analysis; conditions: 10 μM
Aurora A = target: T2, Aurora A (Homo sapiens, UniProt O14965); assay: SelectScreen in vitro kinase profiling, single point; conditions: additional single point analysis, 10 μM
T2 sequence (O14965 1-403): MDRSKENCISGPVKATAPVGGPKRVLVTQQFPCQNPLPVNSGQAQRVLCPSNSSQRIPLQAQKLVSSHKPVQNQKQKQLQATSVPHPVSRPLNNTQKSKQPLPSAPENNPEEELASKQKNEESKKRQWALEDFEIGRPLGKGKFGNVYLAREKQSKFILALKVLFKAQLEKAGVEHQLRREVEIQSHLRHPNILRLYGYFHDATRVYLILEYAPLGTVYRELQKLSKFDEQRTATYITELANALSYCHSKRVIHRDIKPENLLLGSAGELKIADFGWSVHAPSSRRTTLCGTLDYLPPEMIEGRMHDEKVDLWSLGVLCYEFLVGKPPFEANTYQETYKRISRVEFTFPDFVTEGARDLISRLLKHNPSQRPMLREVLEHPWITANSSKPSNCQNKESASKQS

recombinant ROCK = assay: In vitro ROCK activity assay (Cyclex Rho-kinase immunoassay); assay type: biochemical; conditions: FIG. 2A bar chart
Description: A specific assay was used to evaluate the ability of the compounds of the invention to inhibit ROCK. Rho-kinase activity was determined using an immunoassay as recommended by the manufacturer (Cyclex Co., Ltd., Nagano, Japan). Briefly, […] samples containing 10 mUnit (1 Unit incorporates 1 nmol of phosphate into GST-MBS/MYPT1 per minute at 30° C.) of recombinant ROCK with or without the compounds of the invention were aliquoted into a 96-well plate (100 μl/well), pre-coated with threonine Rho-kinase phosphorylation substrate. After 30 min incubation at 30° C., the plate was washed three times with PBS then incubated with 100 μl/well of HRP conjugated anti-phospho-specific antibody for 1 h at room temperature. The amount of phosphorylated substrate was determined by adding 100 μl/well of substrate reagent for 10 min and the reaction was terminated by adding 100 μl/well of the stop solution. The absorbance was measured on a 96-well plate reader at 450 nm (Dynex Technologies, West Sussex, UK). Each data point was performed in triplicate and the assay was repeated twice.

Sequence of ROCK1 (Q13464 whole entry): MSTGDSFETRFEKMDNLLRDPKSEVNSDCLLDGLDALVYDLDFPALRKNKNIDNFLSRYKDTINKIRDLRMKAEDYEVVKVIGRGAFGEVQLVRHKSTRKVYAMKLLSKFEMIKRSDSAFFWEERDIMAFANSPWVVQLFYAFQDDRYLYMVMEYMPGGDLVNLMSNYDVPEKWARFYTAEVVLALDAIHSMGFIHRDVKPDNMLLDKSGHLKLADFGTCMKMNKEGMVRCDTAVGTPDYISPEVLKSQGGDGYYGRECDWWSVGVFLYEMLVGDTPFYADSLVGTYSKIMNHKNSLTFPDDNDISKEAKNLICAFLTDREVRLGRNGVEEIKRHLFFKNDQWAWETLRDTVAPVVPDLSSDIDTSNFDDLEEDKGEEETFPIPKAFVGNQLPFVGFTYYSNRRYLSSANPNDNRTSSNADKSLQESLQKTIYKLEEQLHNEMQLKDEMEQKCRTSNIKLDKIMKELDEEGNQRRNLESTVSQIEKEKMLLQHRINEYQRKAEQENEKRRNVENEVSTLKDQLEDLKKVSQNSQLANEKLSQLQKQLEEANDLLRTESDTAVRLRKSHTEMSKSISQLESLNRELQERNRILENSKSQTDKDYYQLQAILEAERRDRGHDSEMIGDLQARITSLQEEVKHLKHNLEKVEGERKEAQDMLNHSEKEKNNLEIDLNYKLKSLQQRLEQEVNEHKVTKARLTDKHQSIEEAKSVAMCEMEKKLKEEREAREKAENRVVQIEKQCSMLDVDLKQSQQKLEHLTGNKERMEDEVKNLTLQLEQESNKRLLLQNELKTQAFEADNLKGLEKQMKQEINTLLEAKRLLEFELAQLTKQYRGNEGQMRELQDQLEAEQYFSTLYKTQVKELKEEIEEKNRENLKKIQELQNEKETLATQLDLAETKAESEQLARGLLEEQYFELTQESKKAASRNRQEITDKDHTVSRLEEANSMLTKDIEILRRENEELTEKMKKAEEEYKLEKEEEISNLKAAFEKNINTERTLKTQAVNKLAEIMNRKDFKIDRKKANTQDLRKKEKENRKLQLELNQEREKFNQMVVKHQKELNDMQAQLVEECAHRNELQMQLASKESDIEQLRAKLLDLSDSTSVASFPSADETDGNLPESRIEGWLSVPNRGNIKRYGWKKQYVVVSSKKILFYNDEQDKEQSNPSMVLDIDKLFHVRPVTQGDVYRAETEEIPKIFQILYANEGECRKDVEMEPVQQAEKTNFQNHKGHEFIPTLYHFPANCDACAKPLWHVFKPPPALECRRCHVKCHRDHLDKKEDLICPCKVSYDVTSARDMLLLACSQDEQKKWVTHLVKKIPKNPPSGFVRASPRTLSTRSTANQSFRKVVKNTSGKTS
Sequence of ROCK2 (O75116 whole entry): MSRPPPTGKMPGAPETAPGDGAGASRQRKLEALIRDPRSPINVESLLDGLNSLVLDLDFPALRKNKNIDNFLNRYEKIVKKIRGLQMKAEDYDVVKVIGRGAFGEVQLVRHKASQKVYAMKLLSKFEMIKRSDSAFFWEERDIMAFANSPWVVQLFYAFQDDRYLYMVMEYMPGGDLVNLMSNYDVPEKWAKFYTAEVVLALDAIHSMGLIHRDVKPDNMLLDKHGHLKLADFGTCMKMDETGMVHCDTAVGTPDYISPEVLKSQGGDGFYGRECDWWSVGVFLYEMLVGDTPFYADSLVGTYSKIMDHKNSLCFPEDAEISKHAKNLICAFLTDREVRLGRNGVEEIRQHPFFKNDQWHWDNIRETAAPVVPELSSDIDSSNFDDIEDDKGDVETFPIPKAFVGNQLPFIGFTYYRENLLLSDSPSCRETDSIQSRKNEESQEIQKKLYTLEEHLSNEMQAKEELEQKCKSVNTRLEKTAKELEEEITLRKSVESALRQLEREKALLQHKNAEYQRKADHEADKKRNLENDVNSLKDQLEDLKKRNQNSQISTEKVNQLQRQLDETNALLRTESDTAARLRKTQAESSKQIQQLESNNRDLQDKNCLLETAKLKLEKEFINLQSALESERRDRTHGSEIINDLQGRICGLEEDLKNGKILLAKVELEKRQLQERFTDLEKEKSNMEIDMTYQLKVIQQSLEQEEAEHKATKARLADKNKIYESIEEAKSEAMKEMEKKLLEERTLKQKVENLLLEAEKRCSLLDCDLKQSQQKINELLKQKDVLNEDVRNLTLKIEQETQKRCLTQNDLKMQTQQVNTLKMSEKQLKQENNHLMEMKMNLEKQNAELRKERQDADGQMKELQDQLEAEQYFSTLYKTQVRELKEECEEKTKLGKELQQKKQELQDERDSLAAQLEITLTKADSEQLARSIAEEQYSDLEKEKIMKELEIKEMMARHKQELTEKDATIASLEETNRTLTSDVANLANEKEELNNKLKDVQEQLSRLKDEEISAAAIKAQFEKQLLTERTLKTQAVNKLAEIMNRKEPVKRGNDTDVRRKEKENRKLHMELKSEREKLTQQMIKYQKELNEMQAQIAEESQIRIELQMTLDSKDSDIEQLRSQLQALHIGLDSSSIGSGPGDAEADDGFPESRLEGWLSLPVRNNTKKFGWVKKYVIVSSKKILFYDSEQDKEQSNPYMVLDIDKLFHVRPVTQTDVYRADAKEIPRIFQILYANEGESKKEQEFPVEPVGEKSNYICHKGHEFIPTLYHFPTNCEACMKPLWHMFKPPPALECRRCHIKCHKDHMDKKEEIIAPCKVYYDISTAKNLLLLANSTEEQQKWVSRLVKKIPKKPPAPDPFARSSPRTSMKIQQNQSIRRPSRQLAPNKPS
Sequence of HGK (MAP4K4) (O95819 whole entry): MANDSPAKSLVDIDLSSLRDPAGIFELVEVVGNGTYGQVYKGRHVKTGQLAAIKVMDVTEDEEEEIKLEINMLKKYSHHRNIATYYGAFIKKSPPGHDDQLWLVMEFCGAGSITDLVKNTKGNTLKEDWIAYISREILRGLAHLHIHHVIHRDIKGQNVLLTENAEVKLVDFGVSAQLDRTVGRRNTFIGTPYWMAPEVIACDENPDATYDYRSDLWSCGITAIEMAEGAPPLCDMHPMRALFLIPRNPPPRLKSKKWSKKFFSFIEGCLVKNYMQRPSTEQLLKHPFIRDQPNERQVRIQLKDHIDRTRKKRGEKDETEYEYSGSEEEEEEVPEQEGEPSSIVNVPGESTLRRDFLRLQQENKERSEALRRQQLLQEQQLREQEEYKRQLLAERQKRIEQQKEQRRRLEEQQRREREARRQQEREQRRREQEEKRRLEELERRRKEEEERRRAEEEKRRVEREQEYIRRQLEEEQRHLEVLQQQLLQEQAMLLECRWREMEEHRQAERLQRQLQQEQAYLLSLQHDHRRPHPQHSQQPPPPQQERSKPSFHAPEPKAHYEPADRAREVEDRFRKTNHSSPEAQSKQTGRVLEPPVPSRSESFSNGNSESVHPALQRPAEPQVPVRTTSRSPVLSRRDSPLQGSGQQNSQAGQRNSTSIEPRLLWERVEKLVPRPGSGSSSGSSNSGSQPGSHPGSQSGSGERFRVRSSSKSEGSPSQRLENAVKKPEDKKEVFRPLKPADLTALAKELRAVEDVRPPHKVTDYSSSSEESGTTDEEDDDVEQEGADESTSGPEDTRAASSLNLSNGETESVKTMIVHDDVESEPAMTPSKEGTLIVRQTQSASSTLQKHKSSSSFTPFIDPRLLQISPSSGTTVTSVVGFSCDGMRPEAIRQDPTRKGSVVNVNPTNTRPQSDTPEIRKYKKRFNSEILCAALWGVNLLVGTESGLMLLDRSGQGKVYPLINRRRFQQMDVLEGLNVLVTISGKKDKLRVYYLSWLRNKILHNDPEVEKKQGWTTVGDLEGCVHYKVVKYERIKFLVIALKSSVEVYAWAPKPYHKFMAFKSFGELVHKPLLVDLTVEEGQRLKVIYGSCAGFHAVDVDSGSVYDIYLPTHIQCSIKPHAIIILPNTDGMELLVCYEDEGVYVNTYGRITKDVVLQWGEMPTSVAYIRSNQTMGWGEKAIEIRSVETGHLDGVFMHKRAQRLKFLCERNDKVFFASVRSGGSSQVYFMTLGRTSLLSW
Sequence of p38 alpha (MAPK14) (Q16539 whole entry): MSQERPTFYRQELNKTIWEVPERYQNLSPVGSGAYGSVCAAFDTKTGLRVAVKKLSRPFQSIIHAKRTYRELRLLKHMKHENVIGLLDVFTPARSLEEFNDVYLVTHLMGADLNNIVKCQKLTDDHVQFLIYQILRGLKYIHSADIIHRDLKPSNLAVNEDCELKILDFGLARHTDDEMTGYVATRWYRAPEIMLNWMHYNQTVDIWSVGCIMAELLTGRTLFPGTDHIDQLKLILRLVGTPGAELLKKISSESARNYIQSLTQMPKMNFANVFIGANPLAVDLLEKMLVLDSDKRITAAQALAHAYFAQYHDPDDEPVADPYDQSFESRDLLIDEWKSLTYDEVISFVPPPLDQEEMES

What does the source list for `C[C@@H](N)[C@H]1CC[C@H](C(=O)Nc2ccncc2)CC1` [Compound Y27632, reference compound]?
inhibition of PKC epsilon (PKC epsilon): 94%; transformed focus formation after treatment, re-seeding and chase ([1]; 10 μM for 2-10 days, re-seeded at 2×10^5, 10 day chase without inhibitor): able to suppress transformed focus formation; formation of GEF16 transformed colonies ([1]; 10 μM, 10 days, post confluent cultures): suppresses the formation of GEF16 transformed NIH3T3 cell colonies; effect on pre-formed transformed colonies ([1]; colonies formed for 10 days, then 10 μM or 20 μM for 3 and 6 days): very little effect on pre-formed transformed colonies; also recorded: Neither Y27632 nor the other compounds of the invention tested (data not shown) exhibited this property; growth of confluent GEF16 transformed cells [2]: inhibits the growth of confluent GEF16 transformed cells; effect on single colony derived GEF16 transformed cells grown in the absence of non-transformed cells [3]: little or no effect

For `C[S+]([O-])c1ccc(-c2nc(-c3ccncc3)c(-c3ccc(F)cc3)[nH]2)cc1` (stereo not shown) [SB203580, reference compound], which “activity against GEF16 transformed colonies” value ([1]; further studies by the inventors) is on record?
Its value is “some activity against GEF16 transformed colonies although this was much less than the compound of the invention YA1”.

Which results are given for `CN(C(=O)c1ccc(CNC(=O)OC(C)(C)C)cc1)c1ccncc1` [YA4, 4-(N-Methyl-N-pyridin-4-ylcarbamoyl)benzylcarbamic acid tert-butyl ester]?
activity against HGK (HGK (MAP4K4)): significant activity against p38, HGK and Aurora A; activity against p38 (p38 alpha (MAPK14)): significant activity against p38, HGK and Aurora A; activity against ROCK2 (ROCK2): less activity against ROCKs than YA2; activity against ROCK1 (ROCK1): less activity against ROCKs than YA2; activity against Aurora A (Aurora A): significant activity against p38, HGK and Aurora A; ROCK inhibitory activity compared to Y27632 (recombinant ROCK): lower ROCK inhibitory activity; also recorded: significantly less activity against ROCK than did their structural analogue Y27632
